# Source: patent US20080114079A1, “TRPM2-specfic inhibitors” (priority 2006, published 2008)
# pIC50: −log10 of the molar value. Entries after “also recorded” stand apart in the source; their conditions may differ.
# Tests used:
# [1] = test system: mouse bone marrow neutrophils; test: Ca2+ mobilization assay in chemoattractant-stimulated bone marrow neutrophils (flow cytometry, Fluo-3/Fura-red); assay type: cell-based; settings: 100 μM, 15 min
# Description: (§1) Ca^2+ mobilization assays. Bone marrow neutrophils (1×10^7/ml) and DCs (1×10^6/ml) were loaded with a mixture of Fluo-3 AM and Fura-Red AM as previously described (Partida-Sanchez, S. et al., 2001 Nature Medicine 7:1209-1216; Partida-Sanchez S. et al., 2004 Immunity 20:279-291). […] The accumulation of intracellular free Ca^2+ was assessed by flow cytometry by measuring the fluorescence emission of Fluo-3 in the FL-1 channel and Fura-Red in the FL-3 channel over time. Data were analyzed using FlowJo 4.0 software (Tree Star). Relative intracellular free Ca^2+ levels are expressed as the ratio between Fluo-3 and Fura-Red mean fluorescence intensity.
# [2] = test system: mouse bone marrow neutrophils; test: Oxidant (H2O2)-induced Ca2+ influx in bone marrow neutrophils; assay type: cell-based; settings: 100 μM, 15 min, H2O2 100 μM
# Description: as §1
# [3] = HPLC analysis of catabolites after incubation with bone marrow neutrophils; assay type: in vitro ADME, mouse
# Description: HPLC analysis of catabolites produced by CD38-expressing cells. […] The supernatants were collected after centrifugation, concentrated and flash frozen. Aliquots were analyzed by reversed-phase HPLC (Kontron Instruments) using a Multohyp BDS C18 column (250 mm×4.6 mm, particle size 5 μm, Chromatographie Service). Absorbance was measured at 270 nm using a UV detector (Kontron 432) and data were processed by the MT2 data acquisition system from Kontron Instruments. Peaks were identified by comparison to known standards and the area under each curve was quantified to determine relative amounts of each metabolite.
# [4] = test system: mouse bone marrow neutrophils; test: Transwell chemotaxis assay, mouse bone marrow neutrophils; assay type: cell-based
# Description: (§2) Chemotaxis assays. Chemotaxis assays were performed as previously described (Partida-Sanchez, S. et al., 2001 Nature Medicine 7:1209-1216; Partida-Sanchez S. et al., 2004 Immunity 20:279-291). […] Treated cells (1×10^6 neutrophils or 1×10^5 DCs) were added to the upper chamber of the transwell (3-μm for neutrophils or 5-μm for DCs) (Costar). After incubating the chambers for 45 min (neutrophils) or 90 min (DCs) at 37° C., the transmigrated cells were collected from the lower chamber, fixed, and counted on a flow cytometer. The results are expressed as the mean ±SD of the chemotaxis index (CI) for triplicate wells. The CI represents the fold-change in the number of untreated or inhibitor-pretreated cells that migrated in response to the chemoattractant divided by the basal migration of untreated or antagonist pretreated cells migrating in response to control medium.
# TRPM2 channels = molecular target: T1, TRPM2 channels (Homo sapiens, UniProt O94759); test: Whole-cell patch-clamp of ADPR-gated cation entry in TRPM2-expressing Jurkat T cells; assay type: cell-based; settings: 300 μM ADPR in the pipette, -60 mV
# T1 construct: All experiments were performed at room temperature with Jurkat T lymphocytes attached to high molecular weight poly-L-lysin; endogenous in cells; host or cells: Jurkat T lymphocytes
# Description: Electrophysiology. […] An EPC9 patch-clamp amplifier was used in conjunction with the PULSE stimulation and data acquisition software (HEKA Elektronik). The patch electrodes were made from 1.5 mm diameter borosilicate glass capillaries and filled with intracellular solution. Data were low-pass filtered at 1 kHz and compensated for both fast and slow capacity transients. Series resistance was compensated by 50-90%. All experiments were performed at room temperature with Jurkat T lymphocytes attached to high molecular weight poly-L-lysin. The pipette solution contained 145 mM K-glutamate, 8 mM NaCl, 1 mM MgCl2 and 10 mM EGTA, adjusted to pH 7.2 with KOH and to a free Ca^2+ concentration of 100 nM with CaCl2. […] The external solution contained 145 mM NaCl, 2 mM MgCl2, 1 mM CaCl2, 2.8 mM KCl, 10 mM HEPES and 10 mM glucose, adjusted to pH 7.2 with NaOH. The cells were held at −60 mV and I-V relations were obtained every 20 sec using 250 ms voltage ramps from −100 to +100 mV.
# mouse DCs = test: Ca2+ mobilization assay in chemokine-stimulated DCs; assay type: cell-based; settings: 100 μM, 15 min, CXCL12 50 ng/ml
# Description: as §1
# human neutrophils = test: Transwell chemotaxis assay, human peripheral blood neutrophils; assay type: cell-based; settings: 100 μM, 15 min, A5 peptide 1 μM
# Description: as §2
# [5] = test system: bone marrow-derived immature or TNFα-matured DCs; test: Transwell chemotaxis assay, bone marrow-derived DCs; assay type: cell-based, mouse; settings: 100 μM, 15 min pretreatment
# Description: as §2
# [6] = fMLP 1 μM, Ca2+-containing media
# [7] = 100 μM, 15 min, fMLP 1 μM, 45 min
# T1 sequence (O94759 whole entry): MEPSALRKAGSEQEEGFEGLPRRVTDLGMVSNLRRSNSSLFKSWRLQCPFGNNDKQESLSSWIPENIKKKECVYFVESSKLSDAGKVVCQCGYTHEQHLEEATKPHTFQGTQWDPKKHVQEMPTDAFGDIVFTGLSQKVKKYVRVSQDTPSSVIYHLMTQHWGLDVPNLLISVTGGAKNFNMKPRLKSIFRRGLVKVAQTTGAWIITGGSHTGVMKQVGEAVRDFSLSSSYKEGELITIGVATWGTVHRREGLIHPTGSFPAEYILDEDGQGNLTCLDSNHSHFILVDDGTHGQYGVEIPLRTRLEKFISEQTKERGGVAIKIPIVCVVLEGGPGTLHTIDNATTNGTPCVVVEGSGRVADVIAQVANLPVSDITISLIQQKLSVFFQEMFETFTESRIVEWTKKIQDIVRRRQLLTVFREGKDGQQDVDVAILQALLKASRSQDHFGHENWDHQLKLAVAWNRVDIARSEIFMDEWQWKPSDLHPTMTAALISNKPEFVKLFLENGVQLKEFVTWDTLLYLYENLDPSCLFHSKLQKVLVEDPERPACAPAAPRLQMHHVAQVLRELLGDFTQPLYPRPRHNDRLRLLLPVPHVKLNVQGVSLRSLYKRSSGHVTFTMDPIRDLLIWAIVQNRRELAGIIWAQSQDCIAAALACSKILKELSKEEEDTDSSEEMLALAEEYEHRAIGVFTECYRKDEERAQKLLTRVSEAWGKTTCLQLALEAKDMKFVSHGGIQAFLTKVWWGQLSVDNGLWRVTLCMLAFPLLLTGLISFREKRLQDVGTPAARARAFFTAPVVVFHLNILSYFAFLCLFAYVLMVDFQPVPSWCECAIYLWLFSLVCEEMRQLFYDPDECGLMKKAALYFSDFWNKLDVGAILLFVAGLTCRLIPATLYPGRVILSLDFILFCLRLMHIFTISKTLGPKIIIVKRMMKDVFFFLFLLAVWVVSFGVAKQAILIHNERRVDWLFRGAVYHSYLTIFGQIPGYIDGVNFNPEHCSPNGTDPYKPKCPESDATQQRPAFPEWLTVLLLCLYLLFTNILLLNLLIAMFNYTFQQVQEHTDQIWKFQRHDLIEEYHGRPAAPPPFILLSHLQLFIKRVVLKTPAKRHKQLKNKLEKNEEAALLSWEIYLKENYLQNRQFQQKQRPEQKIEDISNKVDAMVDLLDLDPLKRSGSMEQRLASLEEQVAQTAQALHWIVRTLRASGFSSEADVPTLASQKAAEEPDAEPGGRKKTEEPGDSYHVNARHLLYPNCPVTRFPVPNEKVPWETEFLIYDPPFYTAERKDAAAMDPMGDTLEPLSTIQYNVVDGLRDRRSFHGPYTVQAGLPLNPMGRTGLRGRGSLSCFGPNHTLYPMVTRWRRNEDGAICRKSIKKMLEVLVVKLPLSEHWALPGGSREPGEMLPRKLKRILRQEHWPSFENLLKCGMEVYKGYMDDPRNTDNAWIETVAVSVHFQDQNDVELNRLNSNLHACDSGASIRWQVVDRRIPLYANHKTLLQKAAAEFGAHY
compound,measurement,setting,value
NC(=O)c1ccc[n+]([C@@H]2O[C@H](COP(=O)([O-])OP(=O)(O)OC[C@H]3O[C@@H](n4c(Br)nc5c(N)ncnc54)[C@H](O)[C@@H]3O)[C@@H](O)[C@H]2O)c1 [8Br-NAD^+],effect on extracellular Ca2+ influx in fMLP-stimulated WT neutrophils,[1]; [6],significantly reduced
same,effect on Ca2+ influx in fMLP-stimulated Parp1-/- neutrophils,"[1]; fMLP 1 μM, Parp1-/-",significantly reduced
same,effect on H2O2-induced Ca2+ influx in WT neutrophils,[2],had no effect
same,stability in the absence of any cells,[3],remained intact
same,effect on chemotactic response of WT neutrophils to fMLP,[4]; [7],significantly inhibited
same,effect on chemotactic response of Parp1-/- neutrophils to fMLP,"[4]; 100 μM, 15 min, fMLP 1 μM, Parp1-/-",inhibited
same,effect on chemotactic response of CD38KO (Cd38-/-) neutrophils to fMLP,"[4]; 15 min, fMLP 1 μM",no further inhibition
Nc1ncnc2c1nc(Br)n2[C@@H]1O[C@H](COP(=O)(O)O)[C@@H](O)[C@H]1O [8Br-AMP],effect on extracellular Ca2+ influx in fMLP-stimulated WT neutrophils,[1]; [6],had absolutely no effect; also recorded: does not block
adenosine diphosphate ribose [ADPR],membrane current on infusion into Jurkat cells,TRPM2 channels,caused a slowly developing inward current
8Br-cADPR,effect on intracellular Ca2+ release after IL-8,"[1]; IL-8 100 nM, Ca2+ free buffer (EGTA 2 mM)",had no effect
same,effect on IL-8 induced Ca2+ response,"[1]; IL-8 100 nM, Ca2+-containing media",neither compound had any effect
same,decrease of intracellular Ca2+ release in fMLP-stimulated neutrophils,"[1]; fMLP 1 μM, Ca2+ free buffer (EGTA 2 mM)",approximately 25%
same,effect on extracellular Ca2+ influx in fMLP-stimulated WT neutrophils,[1]; [6],significantly decreased
same,effect on Ca2+ response of CXCL12-stimulated immature DCs,mouse DCs,blocked
same,effect on migration of human neutrophils to FPRL1 ligand A5 peptide,human neutrophils,effectively inhibited
same,catabolism on incubation with CD38KO (Cd38-/-) neutrophils,[3],remained largely unchanged
same,stability in the absence of any cells,[3],remained intact
same,pIC50,"[4]; 0-100 μM, 15 min, fMLP 1 μM, read-out: IC50 on chemotaxis of fMLP-stimulated mouse neutrophils",5.30 to 6.00
same,effect on chemotactic response of WT neutrophils to fMLP,[4]; [7],effectively blocked chemotaxis; also recorded: significantly inhibited
same,effect on chemotactic response of neutrophils to IL-8,"[4]; 100 μM, IL-8 100 nM, 45 min",neither 8Br-ADPR nor 8Br-cADPR blocked
same,effect on chemotactic response of CD38KO (Cd38-/-) neutrophils to fMLP,"[4]; 15 min, fMLP 1 μM",no further inhibition
same,chemotactic response of TNFα-matured DCs to CCL21,[5],neither the immature nor mature DCs migrated efficiently
same,chemotactic response of immature DCs to CXCL12,[5],neither the immature nor mature DCs migrated efficiently
